test system: TNF α; test: inhibition of endotoxin (LPS) induced TNF production in vivo in anaesthetised rats; design: species or system Male CD rats; conditions: rat, 10 mg.kg^-1 intraperitoneally, 1 hour prior to LPS
Experimental: Test compounds were assessed for their ability to inhibit release of endotoxin induced TNF production in vivo.
(§1) Male CD rats (Charles River, UK) weighing between 300 g-400 g were anaesthetised with an intra-peritoneal injection of a mixture of 62.5 mg.kg^-1 thiopental and 22.5 mg.kg^-1 sodium pentobarbitone (Thiopental, Sigma Chemical Co., UK; Sodium pentobarbitone (Sagatal), May and Baker., UK). The trachea was exposed and cannulated to allow spontaneous respiration through a patent airway. The left jugular vein was exposed and cannulated for the administration of LPS. The right femoral artery was exposed and cannulated for withdrawal of blood samples. Blood samples (1 ml) were removed 5 minutes prior to bolus administration of either LPS (E. coil serotype 0111:b4, Difco Laboratories, USA) or saline (NaCL 0.9% w/v) and at intervals of 1 hour and 2 hours after LPS. Removed blood was replaced with equal amounts of saline.
The peak of TNF release was at the 1 hour timepoint. TNF levels were expressed in units/ml where 1 unit is the equivalent of 1 pg of mouse TNF α.
(§2) Rat serum TNF levels were measured using a mouse TNF α reference standard. The commercial ELISA kits were from Genzyme.
Test compounds were administered intraperitoneally to anaesthetised rats at a dose of 10 mg.kg^-1, 1 hour prior to LPS administration.
The results are expressed as the % inhibition of maximal TNF elevation relative to control: […]

| Compound | % Inhibition of Maximal TNF Elevation relative to control |
| --- | --- |
| CNC(=O)[C@H](Cc1ccc(OC)cc1)NC(=O)[C@H](CC(C)C)[C@H](C)C(=O)NO [Compound 1, 3R-(2-(4-methoxyphenyl)-1S-methylcarbamoyl-ethylcarbamoyl)-2S,5-dimethyl-hexanohydroxamic acid] | 0% |
| CNC(=O)[C@H](Cc1ccc(NC(C)=O)cc1)NC(=O)[C@@H](CC(=O)NO)CC(C)C [Compound 23, 3R-(2-(4-acetamidophenyl)-1S-methylcarbamoyl-ethylcarbamoyl)-5-methyl-hexanohydroxamic acid] | 35% |
| CNC(=O)[C@H](Cc1ccc(OC)cc1)NC(=O)[C@@H](CC(=O)NO)CC(C)C [Compound 70, 3R-(2(4-methoxyphenyl)-1S-methylcarbamoyl-ethylcarbamoyl)-5-methyl-hexanohydroxamic acid] | 37% |
| CC(C)C[C@H](CC(=O)NO)C(=O)N[C@@H](Cc1ccccc1)C(=O)NCCCN1CCCC1=O [Compound 74, 3R-(2-phenyl-1S-[2-oxo-pyrolid-1-yl]propylcarbamoyl-ethylcarbamoyl)-5-methyl-hexanohydroxamic acid] | 28% |
| CNC(=O)[C@H](Cc1ccccc1)NC(=O)[C@H](CCc1ccccc1)CC(=O)NO [Compound 87, 3R-(2-phenyl-1S-methylcarbamoyl-ethylcarbamoyl)-5-phenyl-pentanohydroxamicacid] | 4% |
| CNC(=O)[C@@H](NC(=O)[C@@H](CC(=O)NO)CC(C)C)C(C)(C)C [Compound 88, 3R-(2,2-dimethyl-1S-methylcarbamoyl-propylcarbamoyl)-5-methyl-hexanohydroxamic acid] | 66% |
| CCOC(=O)CNC(=O)[C@H](CC(C)C)NC(=O)[C@H](CC(C)C)[C@H](CCCCN1C(=O)c2ccccc2C1=O)C(=O)NO [Compound 93, 2S-(4-phthalimido-butyl)-3R-(3-methyl-1S-ethoxycarbonylmethylcarbamoyl-butylcarbamoyl)-5-methyl-hexanohydroxamic acid] | 43% |
| CC(C)C[C@H](CC(=O)NO)C(=O)N[C@@H](Cc1ccccc1)C(=O)NCc1cccnc1 [Compound 98, 3R-(2-phenyl-1S-[pyrid-3-ylmethylcarbamoyl]-ethylcarbamoyl)-5-methyl-hexanohydroxamic acid] | 28% |
| CNC(=O)[C@H](Cc1ccccc1)NC(=O)[C@H](CC(C)C)[C@H](CS(=O)(=O)c1cccs1)C(=O)NO [Compound 99, 2S-(thien-2-ylsulfonylmethyl)-3R-(2-phenyl-1S-methylcarbamoyl-ethylcarbamoyl)-5-methyl-hexanohydroxamic acid] | 55% |

test system: TNF α; test: variation: infusion of compound before LPS, inhibition of TNF elevation in vivo; design: species or system Male CD rats; conditions: rat, infusion 1 mg/kg/hr, 15 minutes prior to LPS 500 μg.kg^-1, for 2 hours
Experimental: as §1, §2

| Compound | inhibition of maximal TNF elevation relative to control |
| --- | --- |
| CNC(=O)[C@H](Cc1ccc(OCC(=O)O)cc1)NC(=O)[C@H](CC(C)C)[C@H](CSc1cccs1)C(=O)NO [Compound 29, 2S-(thien-2-ylsulphanylmethyl)-3R-(2-(4-carboxymethoxyphenyl)-1S-methylcarbamoyl-ethylcarbamoyl)-5-methyl-hexanohydroxamic acid] | 60% |

test system: TNFα release from human monocytic cell line, U937; test: inhibition of TNFα release from PMA-stimulated human monocytic cell line U937 (18 h, ELISA); assay type: cell-based; conditions: U-937, PMA 50 nM, U937 cells, 18 hours at 37° C., reported by Group A/B/C, read-out: IC50 (concentration which inhibits the release of TNFα by 50% relative to the control culture)
Experimental: Metalloproteinase inhibitors can prevent the release of TNF from PMA-stimulated human monocytic cell line U937.
The ability of representative compounds, which are inhibitors of metalloproteinases, to inhibit the release of TNF was investigated. The assay is based on the ability of phorbol myristate acetate (PMA) to stimulate the release of TNFα from a human monocytic cell line, U937.
U937 cells cultured in RPMI 1640 medium +5% foetal calf serum were centrifuged at 1000×g for 5 minutes and then resuspended in medium at 2×10^6 /ml. 1 ml of cell suspension was aliquoted into individual wells of 24-well plates. Test compounds were dissolved in dimethyl sulphoxide (DMSO) at a stock concentration of 100 mM, then diluted to 50×the final required concentration with RPMI 1640 medium. 20 μl of the diluted compounds were added to U937 cells in duplicate wells. TNFα release was stimulated by addition of PMA to the cells at a final concentration of 50 nM. Appropriate control cultures were set up in duplicate. The plates were incubated for 18 hours at 37° C., 5% CO2, then centrifuged at 1000 ×g for 5 minutes. A specific ELISA for TNFα obtained from British Bio-technology Products Limited, Abingdon, England was used to measure TNFα levels in the culture supernatants according to the protocol supplied.
The average concentration of test compound which inhibits the release of TNFα by 50% relative to the control culture was assessed as greater than 90 μM, in the range 10 μM-90 μM, or less than 10 μM.

| Compound | IC50 |
| --- | --- |
| CNC(=O)[C@H](Cc1ccc(OC)cc1)NC(=O)[C@H](CC(C)C)[C@H](C)C(=O)NO [Compound 1, 3R-(2-(4-methoxyphenyl)-1S-methylcarbamoyl-ethylcarbamoyl)-2S,5-dimethyl-hexanohydroxamic acid] | < 10 µM |
| CNC(=O)[C@H](Cc1ccccc1)NC(=O)[C@H](CC(C)C)[C@H](CSc1ccccc1)C(=O)NO [Compound 2, 2S-(phenylsulfanylmethyl)-3R-(2-phenyl-1S-methylcarbamoyl-ethylcarbamoyl)-5-methyl-hexanohydroxamic acid] | < 10 µM |
| CNC(=O)[C@H](Cc1ccccc1)NC(=O)[C@H](CC(C)C)[C@H](CSc1cccs1)C(=O)NO [Compound 3, 2S-(thien-2-ylsulfanylmethyl)-3R-(2-phenyl-1S-methylcarbamoyl-ethylcarbamoyl)-5-methyl-hexanohydroxamic acid] | < 10 µM |
| CNC(=O)[C@H](Cc1ccc(OC)cc1)NC(=O)[C@@H](CC(C)C)[C@H](C)C(=O)NO [Compound 69, 3S-(2(4-methoxyphenyl)-1S-methylcarbamoyl-ethylcarbamoyl)-2S,5-dimethyl-hexanohydroxamic acid] | 10 to 90 µM |
| CNC(=O)[C@H](Cc1ccc(OC)cc1)NC(=O)[C@@H](CC(=O)NO)CC(C)C [Compound 70, 3R-(2(4-methoxyphenyl)-1S-methylcarbamoyl-ethylcarbamoyl)-5-methyl-hexanohydroxamic acid] | 10 to 90 µM |
| COc1ccc(C[C@H](NC(=O)[C@@H](CC(=O)NO)CC(C)C)C(=O)N(C)C)cc1 [Compound 100, 3R-(2-(4-methoxyphenyl)-1S-dimethylcarbamoyl-ethylcarbamoyl)-5-methyl-hexanohydroxamic acid] | > 90 µM |
| CC(C)C[C@H](CC(=O)NO)C(=O)NC1Cc2ccccc2NC1=O (stereo partly drawn) [Compound 101, 3R-(2-oxo-1,2,3,4-tetrahydro-quinoli-3-ylcarbamoyl)-5-methyl-hexanohydroxamic acid] | > 90 µM |

From patent US5691382A, “Inhibition of TNF production with matrix metaloproteinase inhibitors” (British Biotech Pharmaceuticals Limited, priority 1992, dated 1997)
